≈ marks a conversion by molar mass, not a printed value.
Assays:
IRES of EV71 = assay: cells; format: cell-based; conditions: for selective inhibition on IRES-dependent translation without affecting CAP-dependent translation (screening, FIG. 2): Cos-1 cells transfected with EV-71 IRES construct, amantadine 0.1 mg/ml, IFN-α 10 units, stavudine 0.05 mg/ml, 12 hrs
Procedure: (§1) Plasmid PGS-EMCV is constructed by inserting into the plasmid pTriEx-4 (obtained from Novagene) template sequences of two reporter genes (cistrons), i.e., β-galactosidase (β-gal), and secreted human placental alkaline phosphatase (SEAP), with a promoter upstream of the first cistron (i.e., β-gal) and an EMCV-IRES sequence downstream of it, between the first cistron and the second cistron (i.e., SEAP). Plasmid pGS-EV71 and pGS-HCV are prepared in similar manner except an EV71-IRES sequence or a HCV-IRES sequence was used to replace the EMCV-IRES sequence.
(§2) The kidney cells from African green monkey, i.e., Cos-1 cells, were transfected with the bicistronic DNA constructs prepared according to Example 1. The method of transfection is well known in the art. Briefly, a transfecting stock solution was prepared as follows: 1) solution A: 1 μg of the bicistronic DNA constructs of Example 1 was dissolved in serum free culturing medium, with its final volume adjusted to be 50 μl; 2) solution B: 2 μl of lipofectAMINE 2000 (obtained from Invitrogen) was mixed with 50 μl of serum free culturing medium; 3) mixed solution A with solution B. Cos-1 cells (0.5−2×10^5/well, 24 wells) were first incubated with 500 μl of the serum free culturing medium for a period of 20 min, and then 102 μl of the transfecting stock solution prepared above was added. The transfected cells were then return to culture environment (37°C., 5% CO2). After 12 hrs, the culturing medium were replaced by a medium containing fetal bovine serum and antibiotics, the transfected cells were continued to culture for another 12 hrs before used in the following compound screening procedure.
The candidate compounds prepared according to the methods described above were dissolved in PBS, with stock concentration to be 10 mg/ml. These stock solutions were then diluted to proper ranges according to various screening conditions required.
(§3) Reporter proteins activities, i.e., secreted Human Alkaline Phosphatase (SEAP) and β-galactosidase (β-gal), were measured with BD Great EscApe SEAP Detection kit (Cat. No. K2041-1, available from Clontech) and Luminescent β-gal Detection kit (Cat. No. K2048-1, available from Clontech), respectively, according to the manufacturer's instruction.

[1] = tested on: CAP-dependent translation; assay: Bicistronic pGS-EV71 reporter assay in Cos-1 cells, β-gal activity (CAP-dependent translation); format: cell-based, African green monkey
Procedure: as §1
(§4) The kidney cells from African green monkey, i.e., Cos-1 cells, were transfected with the bicistronic DNA constructs prepared according to Example 1. The method of transfection is well known in the art. […]
as §3

IRES of HCV = assay: Bicistronic pGS-HCV reporter assay (IRES of HCV); format: cell-based, HCV (hepatitis C virus); conditions: data not shown
Procedure: as §1, §4, §3

IRES of EMCV = assay: Bicistronic pGS-EMCV reporter assay in Cos-1 cells, SEAP activity (IRES-dependent translation); format: cell-based
Procedure: as §1, §2
The candidate compounds prepared according to the methods described above were dissolved in PBS, with stock concentration to be 10 mg/ml. These stock solutions were then diluted to proper ranges according to various screening conditions required. […] Then, the identified tested compound can be used in preparation of a medicament for treating EV or EMCV infection.
as §3

[2] = tested on: CAP-dependent translation; assay: Bicistronic pGS-EMCV reporter assay in Cos-1 cells, β-gal activity (CAP-dependent translation); format: cell-based, African green monkey
Procedure: as §1, §4, §3

EV-71 = EV-71 whole cell antiviral activity; format: cell-based; conditions: Enterovirus A, EV71

SMILES	selective inhibition on IRES-dependent translation without affecting CAP-dependent translation (screening, FIG. 2) (IRES of EV71)	IC50 (IRES of EV71; Enterovirus A, EV71, COS-1, read-out: calculated IC50 for inhibition of IRES-dependent translation of EV71)	inhibition at 250 µg/mL (IRES of EV71; Enterovirus A, EV71, COS-1, read-out: inhibition of IRES-dependent translation activity)	gene inhibition (EV71-IRES mediated gene expression) (IRES of EV71; dose of about 0.01 mg/ml (FIG. 5A))	gene inhibition (EV71-IRES mediated gene expression) (IRES of EV71; dose of about 0.25 mg/ml (FIG. 5A))	effect on SEAP activities (IRES of EV71; pGS-EV71 transfected cells, 0.01 mg/ml to 0.25 mg/ml (FIG. 3B))	effect on CAP-dependent translation activity ([1]; 0.25 mg/ml, pGS-EV71 cells (FIG. 3))	effect on β-gal activities ([1]; pGS-EV71 transfected cells, 0.01 mg/ml to 0.25 mg/ml (FIG. 3A))	effects on IRES of HCV (IRES of HCV)	IC50 (IRES of EMCV; Cardiovirus A, COS-1, read-out: calculated IC50 for inhibition of IRES-dependent translation of EMCV)	inhibition at 250 µg/mL (IRES of EMCV; Cardiovirus A, COS-1, read-out: inhibition of IRES-dependent translation activity)	gene inhibition (EMCV-IRES mediated gene expression) (IRES of EMCV; dose of about 0.05 mg/ml (FIG. 5B))	gene inhibition (EMCV-IRES mediated gene expression) (IRES of EMCV; dose of about 0.25 mg/ml (FIG. 5B))	effect on SEAP activities (IRES of EMCV; pGS-EMCV transfected cells, 0.01 mg/ml to 0.25 mg/ml (FIG. 4B))	effect on CAP-dependent translation activity ([2]; 0.25 mg/ml, pGS-EMCV cells (FIG. 4))	effect on β-gal activities ([2]; pGS-EMCV transfected cells, 0.01 mg/ml to 0.25 mg/ml (FIG. 4A))	IC50 (EV-71)
Cc1cn([C@H]2C=C[C@@H](CO)O2)c(=O)[nH]c1=O [stavudine]	only amantadine demonstrates selective inhibition																
NC12CC3CC(CC(C3)C1)C2 [amantadine, 1-Aminoadamantane]	selective inhibition on IRES-dependent translation without affecting CAP-dependent translation	~55 µg/mL (≈ 364 µM)	~80%	20%	80%	inhibits SEAP activities	relatively no effect	little or no effect	no effects	~45 µg/mL (≈ 298 µM)	~80%	20%	80%	inhibits SEAP activities	relatively no effect	little or no effect	~8820 µg/mL (≈ 58300 µM)
